# From patent US8202882B2, “5-cyanothienopyridines for the treatment of tumours” (Merck Patent Gesellschaft MIT Beschränkter Haftung, priority 2007, dated 2012)
# pIC50: −log10 of the molar value.
# Biological target: T1, GST-ALK5 (TGF-beta receptor I kinase) (Homo sapiens, UniProt P36897)
# T1 sequence (P36897 34-503): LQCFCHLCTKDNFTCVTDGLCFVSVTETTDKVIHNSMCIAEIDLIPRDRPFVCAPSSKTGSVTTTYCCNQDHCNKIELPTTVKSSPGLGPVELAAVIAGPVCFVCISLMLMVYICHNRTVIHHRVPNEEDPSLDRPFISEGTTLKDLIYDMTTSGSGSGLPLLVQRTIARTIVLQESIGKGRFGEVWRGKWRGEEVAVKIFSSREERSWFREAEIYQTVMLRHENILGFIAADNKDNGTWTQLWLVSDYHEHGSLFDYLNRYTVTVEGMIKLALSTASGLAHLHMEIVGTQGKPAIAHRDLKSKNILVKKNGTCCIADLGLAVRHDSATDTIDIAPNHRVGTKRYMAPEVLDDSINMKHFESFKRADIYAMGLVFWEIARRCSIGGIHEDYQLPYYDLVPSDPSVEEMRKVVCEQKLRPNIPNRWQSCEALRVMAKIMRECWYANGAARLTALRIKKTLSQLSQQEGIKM
# Assay: In-vitro (enzyme) kinase assay, 384-well flashplate; inhibition of TGF-beta
# Assay type: biochemical
# Settings: GST-ALK5 with GST-SMAD2 substrate, 3 mM ATP (33P-ATP), 30° C., 45 min
# Experimental: In-Vitro (Enzyme) Assay for the Determination of the Efficacy of Inhibitors of the Inhibition of TGF-Beta-Promoted Effects Vermittelten Wirkungen
# The kinase assay is carried out as 384-well flashplate assay. 31.2 nM of GST-ALK5, 439 nM of GST-SMAD2 and 3 mM of ATP (with 0.3 μCi of ^33P-ATP/well) are incubated in a total volume of 35 μl (20 mM of HEPES, 10 mM of MgCl, 5 mM of MnCl, 1 mM of DTT, 0.1% of BSA, pH 7.4) without or with test substance (5-10 concentrations) at 30° C. for 45 min. The reaction is stopped using 25 μl of 200 mM EDTA solution, filtered with suction at room temperature after 30 min, and the wells are washed with 3 times 100 μl of 0.9% NaCl solution. Radioactivity is measured in the TopCount. The IC50 values are calculated using RS1.
row,pIC50,Compound
1,6.54,"N#Cc1c(N)nc2sc(C(N)=O)c(N)c2c1-c1nc2ccccc2s1 [Compound A16, 3,6-Diamino-4-benzothiazol-2-y1-5-cyanothieno[2,3-b]pyridine-2-carboxamide]"
2,7.20,"CN1CCN(CCCNc2nc3sc(C(N)=O)c(N)c3c(-c3cc4ccccc4o3)c2C#N)CC1 [Compound A30, 3-amino-4-benzofuran-2-yl-5-cyano-6-[3-(4-methylpiperazin-1-yl)propylamino]thieno[2,3-b]pyridine-2-carboxamide]"
3,6.74,"N#Cc1c(NCC(O)CO)nc2sc(C(N)=O)c(N)c2c1-c1cc2ccccc2o1 (stereo not shown) [Compound A41, 3-Amino-4-benzofuran-2-yl-5-cyano-6-(2,3-dihydroxypropylamino)thieno[2,3-b]pyridine-2-carboxamide]"
4,6.62,"CCS(=O)(=O)N1CCN(c2nc3sc(C(N)=O)c(N)c3c(-c3cc(C)c(C)o3)c2C#N)CC1 [Compound A53, 3-Amino-5-cyano-4-(4,5-dimethylfuran-2-yl)-6-(4-ethanesulfonylpiperazin-1-yl)thieno[2,3-b]pyridine-2-carboxamide]"
